Results: patent US5149793A, “Exo-3',4'-O-benzylidene-3"-demethylchartreusin and its salts” (Ishihara Sangyo Kaisha, Ltd., priority 1989, dated 1992)
Converted amounts (≈) assume the structure as drawn. Where two headings read alike, the source gives them in different places.

What was measured:
B-16 melanoma cells = experiment: Antitumorous activity: growth inhibition of B-16 melanoma cells (Test Example 1); format: cell-based, mice; settings: Mus musculus, B16, 1 hour drug exposure at 37° C., then 48 hours incubation
Protocol: B-16 melanoma cells were suspended in RPMI 1640 medium containing 5% fetal bovine serum in a concentration of 4×10^4 cells/ml. The resulting suspension was placed in the 12 wells (1 ml/well) of a plate-cum-wells, wherein preliminary incubation was then carried out for 24 hours. A test drug was dissolved in a mixture of dimethyl sulfoxide and a culture medium of 5% serum - RPMI 1640 (1:3 in volume ratio). Thus, drug solutions having various respective drug concentrations were prepared. 20 μl each of these drug solutions were respectively added to the wells of the plate. The resulting drug-added suspensions were subjected to incubation at 37° C. for 1 hour. Subsequently, the incubated medium were removed from the respective wells, which were then washed once with the same culture medium as mentioned above. Thereafter, the same culture medium as mentioned above was freshly placed in each of the wells of the plate, followed by incubation at 37° C. for 48 hours.
The number of cells in each well was counted according to a customary method using a Coulter counter.
The values of growth control rate in the members of each drug-treated group, which members corresponding to the respective wells of the plate were culture broths respectively treated with drug solutions having various respective drug concentrations, were calculated by comparison with the growth rate of the drug-untreated group. The inhibitory concentration of each test drug in which the growth control rate was 50% (IC50) was calculated from the above-calculated values of growth control rate.

[1] = Antitumorous activity (general statement); settings: result in words
[2] = Antibacterial activity (general statement); settings: result in words
[3] = result in words; already known; cited from earlier work
[4] = result in words; already known; cited from earlier work; remark: listed apart in the source
[5] = test system: Bacillus megaterium IFO 12108; experiment: Antibacterial activity, agar dilution method (Test Example 2); format: cell-based; settings: Priestia megaterium, IFO12108
From the text: (§1) The minimum inhibitory concentrations (MIC) of exo-BDMC against growth of various microorganisms were examined according to an agar dilution method.

[6] = test system: Bacillus subtilis PCI 219; experiment: as above; format: cell-based; settings: PCI219
From the text: as §1

[7] = test system: Flavobacterium meningosepticum IFO 12535; experiment: as above; format: cell-based; settings: Elizabethkingia meningoseptica, IFO12535
From the text: as §1

[8] = test system: Staphylococcus aureus 209P; experiment: as above; format: cell-based
From the text: as §1

[9] = test system: cells of experimental tumors of mice and the like, such as P-388 leukemia, L-1210 leukemia, B-16 melanoma, M-5076 sarcoma, Colon 26, and Lewis lung carcinoma; experiment: Activity against cells of experimental tumors (general statement); format: cell-based; settings: exo-BDMC or its salts; result in words
[10] = test system: Gram-positive bacteria or Gram-negative bacteria; experiment: Growth inhibition of bacteria (general statement); format: cell-based; settings: exo-BDMC or its salts; result in words
[11] = parameters: species or system mice; settings: mouse, in vivo
Protocol: Exo-6-O-(N-trifluoroacetyl-β-aminoisobutyryl)-3',4'-O-benzylidenechartreusin was intravenously injected in a dose of 40 mg/kg into 160 DDY mice. 300 g of feces excreted within 24 hours after the intravenous injection were collected and ground down in a mortar. 1 liter of a mixed solvent (methanol:chloroform=1:1 in volume ratio) was added to the ground-down feces. The resulting mixture was stirred at 60° C. for 30 minutes to effect extraction, followed by separation of insolubles by filtration. The separated insolubles were admixed with 700 ml of the same mixed solvent as mentioned above to effect extraction again. The two resulting extracts were put together and concentrated under reduced pressure to obtain 9 g of crude exo-BDMC. The crude exo-BDMC was subjected to a purification operation by silica gel column chromatography (developing solvent: chloroform+methanol). The above-mentioned purification operation was repeated. An exo-BDMC-containing fraction obtained by the foregoing purification procedure was concentrated and then recrystallized from a mixed solvent (chloroform:methanol:ethyl acetate=2:1:1 in volume ratio) to obtain 50 mg of exo-BDMC. […]

SMILES | IC50 (B-16 melanoma cells) [µg/mL] | antitumorous activity [1] | antibacterial activity [2] | antitumorous activity [3] | antibacterial activity [4] | MIC [5] [µg/mL] | MIC [6] [µg/mL] | MIC [7] [µg/mL] | MIC [8] [µg/mL] | activities against cells of experimental tumors [9] | capacity of inhibiting growth of bacteria [10] | presence in the excreta of mice (metabolite of exo-3',4'-O-benzylidenechartreusin derivatives) [11]
Cc1ccc2oc(=O)c3c(O)c4cccc(O[C@@H]5O[C@H](C)[C@H](O)[C@H](O)[C@H]5O[C@H]5O[C@H](C)[C@H](O)[C@H](O)[C@H]5O)c4c4oc(=O)c1c2c34 [3"-DMC, 3"-demethylchartreusin] | 11 (≈ 17.6 µM) | has antitumorous and antibacterial activities | has antitumorous and antibacterial activities | – | – | – | – | – | – | – | – | –
CO[C@H]1[C@@H](O)[C@@H](C)O[C@H](O[C@H]2[C@H](Oc3cccc4c(O)c5c(=O)oc6ccc(C)c7c(=O)oc(c34)c5c67)O[C@H](C)[C@H](O)[C@@H]2O)[C@@H]1O [chartreusin] | 9.2 (≈ 14.4 µM) | – | – | has antibacterial and antitumorous activities | has antibacterial and antitumorous activities | – | – | – | – | – | – | –
CO[C@H]1[C@@H](O)[C@@H](C)O[C@H](O[C@H]2[C@H](Oc3cccc4c(O)c5c(=O)oc6ccc(C)c7c(=O)oc(c34)c5c67)O[C@H](C)[C@@H]3OC(c4ccccc4)O[C@@H]32)[C@@H]1O (stereo partly drawn) [exo-BC, Exo-3',4'-O-benzylidenechartreusin, reference compound] | 2.1 (≈ 2.88 µM) | – | – | – | – | – | – | – | – | – | – | –
Cc1ccc2oc(=O)c3c(O)c4cccc(O[C@@H]5O[C@H](C)[C@@H]6OC(c7ccccc7)O[C@@H]6[C@H]5O[C@H]5O[C@H](C)[C@H](O)[C@H](O)[C@H]5O)c4c4oc(=O)c1c2c34 (stereo partly drawn) [exo-BDMC, exo-3',4'-O-benzylidene-3"-demethylchartreusin] | 0.9 (≈ 1.26 µM) | has antitumorous and antibacterial activities | has antitumorous and antibacterial activities | – | – | 1.56 (≈ 2.18 µM) | 1.56 (≈ 2.18 µM) | 1.56 (≈ 2.18 µM) | 3.13 (≈ 4.38 µM) | exhibit activities against cells of experimental tumors | strongly inhibiting growth of either Gram-positive bacteria or Gram-negative bacteria | exists in the excreta of mice
